# According to patent US10933063B2 (priority 2017, dated 2021):
# pIC50: −log10 of the molar value. Where two headings read alike, the source gives them in different places.
# Assays:
# [1] = target: Btk (Mus musculus (Mouse), UniProt P35991); experiment: Btk occupancy in vivo (PBMCs or splenocytes, PCI-33380 labeling); details: 4 hours after dosing, Babc/L mice
# Procedure: For analysis of Btk occupancy in Babc/L mice following oral dosing of compounds after 4 hours. Isolating peripheral blood mononuclear cells (PBMCs) with mouse peripheral blood separation kit (Hao Yang Biological Manufacture CO., LTD, Tianjin) were collected from Babc/L mice (1 ml blood from two mice). Spleens were processed to splenocytes followed by 5 min incubation in red blood cell lysing buffer (from mouse peripheral blood separation kit).
# [2] = target: T1, BTK (Homo sapiens (Human), UniProt Q06187)
# [3] = target: LYN (Homo sapiens (Human), UniProt P07948); details: read-out: LYN IC50, [ATP]=20 μM
# Procedure: (§1) Btk kinase activity was determined using a homogenous time resolved fluorescence (HTRF) methodology. Measurements were performed in a reaction volume of 15 μL using 384-well assay plates. Kinase enzyme, inhibitor, ATP and 1 μM peptide substrate were incubated in a reaction buffer compose of Hepes50 mM (pH7.0), NaN3 0.02%, BSA 0.01%, Orthocanadate 0.1 mM. […] For each compound, enzyme activity as measured at various concentrations of compound, Negative control reactions were performed in the absence of inhibitor in two replicates and eight no enzyme controls were used to determine baseline fluorescence levels.
# (§2) For LYN assay, [ATP]=20 μM, LYN=0.12 n M. For LCK assay, [ATP]=20 μM, LCK=0.2 nM.
# [4] = target: LCK (Homo sapiens (Human), UniProt P06239); details: read-out: LCK IC50; [ATP]=20 μM, LCK=0.2 nM
# Procedure: as §1, §2
# [5] = target: TEC (Homo sapiens (Human), UniProt P42680); experiment: biochemical
# [6] = target: EGFR (Homo sapiens (Human), UniProt P00533); experiment: biochemical
# [7] = target: ITK (Homo sapiens (Human), UniProt Q08881); experiment: biochemical
# [8] = target: T1, BTK; experiment: biochemical
# T1 sequence (Q06187 whole entry, looked up, species assumed): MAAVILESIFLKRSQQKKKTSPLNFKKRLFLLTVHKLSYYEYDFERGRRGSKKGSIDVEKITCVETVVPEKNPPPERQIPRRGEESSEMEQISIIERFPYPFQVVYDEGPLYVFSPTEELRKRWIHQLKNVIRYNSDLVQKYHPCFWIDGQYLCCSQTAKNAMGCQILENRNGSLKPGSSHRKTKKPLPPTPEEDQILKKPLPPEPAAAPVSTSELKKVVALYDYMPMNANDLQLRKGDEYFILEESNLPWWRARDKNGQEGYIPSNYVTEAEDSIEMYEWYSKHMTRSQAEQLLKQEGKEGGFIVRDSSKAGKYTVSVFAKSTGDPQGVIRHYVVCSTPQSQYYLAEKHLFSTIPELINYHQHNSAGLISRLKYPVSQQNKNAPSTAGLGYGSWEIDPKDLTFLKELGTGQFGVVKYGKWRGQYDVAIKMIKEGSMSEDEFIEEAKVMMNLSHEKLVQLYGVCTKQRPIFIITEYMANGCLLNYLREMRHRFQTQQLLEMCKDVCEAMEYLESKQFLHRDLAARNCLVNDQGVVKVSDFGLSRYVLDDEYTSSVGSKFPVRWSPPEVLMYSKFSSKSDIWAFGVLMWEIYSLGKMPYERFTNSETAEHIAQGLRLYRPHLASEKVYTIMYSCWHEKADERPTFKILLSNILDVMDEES
# Sequence of LYN (P07948 whole entry, looked up, species assumed): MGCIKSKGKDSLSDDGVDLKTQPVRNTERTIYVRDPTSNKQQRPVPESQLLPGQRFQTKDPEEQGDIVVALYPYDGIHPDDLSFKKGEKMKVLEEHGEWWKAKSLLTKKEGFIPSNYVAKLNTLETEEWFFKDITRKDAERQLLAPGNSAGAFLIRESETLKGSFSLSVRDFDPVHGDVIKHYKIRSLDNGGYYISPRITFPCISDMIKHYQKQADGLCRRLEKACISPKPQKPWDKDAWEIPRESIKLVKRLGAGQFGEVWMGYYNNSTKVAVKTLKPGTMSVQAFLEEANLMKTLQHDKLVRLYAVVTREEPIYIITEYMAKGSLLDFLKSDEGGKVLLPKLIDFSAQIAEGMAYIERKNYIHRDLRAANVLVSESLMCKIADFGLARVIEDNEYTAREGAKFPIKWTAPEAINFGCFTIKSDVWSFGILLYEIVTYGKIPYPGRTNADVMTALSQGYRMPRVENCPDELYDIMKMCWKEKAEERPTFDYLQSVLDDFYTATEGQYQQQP
# Sequence of Btk (P35991 whole entry, looked up): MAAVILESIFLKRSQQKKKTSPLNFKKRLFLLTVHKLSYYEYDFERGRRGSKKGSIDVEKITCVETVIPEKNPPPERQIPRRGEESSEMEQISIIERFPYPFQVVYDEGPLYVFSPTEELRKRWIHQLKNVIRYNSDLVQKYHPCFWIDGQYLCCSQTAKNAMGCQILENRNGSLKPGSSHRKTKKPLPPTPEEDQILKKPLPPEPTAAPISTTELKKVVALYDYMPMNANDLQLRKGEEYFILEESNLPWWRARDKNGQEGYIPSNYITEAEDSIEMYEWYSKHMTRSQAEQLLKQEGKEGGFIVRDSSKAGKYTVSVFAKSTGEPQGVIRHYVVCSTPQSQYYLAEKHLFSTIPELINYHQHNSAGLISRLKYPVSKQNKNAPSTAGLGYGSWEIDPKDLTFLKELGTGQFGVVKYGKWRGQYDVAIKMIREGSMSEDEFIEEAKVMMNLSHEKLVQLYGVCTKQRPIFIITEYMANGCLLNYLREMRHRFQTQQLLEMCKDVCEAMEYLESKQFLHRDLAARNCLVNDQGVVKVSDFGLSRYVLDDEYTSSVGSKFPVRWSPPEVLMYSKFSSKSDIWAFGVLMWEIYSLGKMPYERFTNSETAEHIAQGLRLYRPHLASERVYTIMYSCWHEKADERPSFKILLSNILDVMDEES
# Sequence of EGFR (P00533 whole entry, looked up, species assumed): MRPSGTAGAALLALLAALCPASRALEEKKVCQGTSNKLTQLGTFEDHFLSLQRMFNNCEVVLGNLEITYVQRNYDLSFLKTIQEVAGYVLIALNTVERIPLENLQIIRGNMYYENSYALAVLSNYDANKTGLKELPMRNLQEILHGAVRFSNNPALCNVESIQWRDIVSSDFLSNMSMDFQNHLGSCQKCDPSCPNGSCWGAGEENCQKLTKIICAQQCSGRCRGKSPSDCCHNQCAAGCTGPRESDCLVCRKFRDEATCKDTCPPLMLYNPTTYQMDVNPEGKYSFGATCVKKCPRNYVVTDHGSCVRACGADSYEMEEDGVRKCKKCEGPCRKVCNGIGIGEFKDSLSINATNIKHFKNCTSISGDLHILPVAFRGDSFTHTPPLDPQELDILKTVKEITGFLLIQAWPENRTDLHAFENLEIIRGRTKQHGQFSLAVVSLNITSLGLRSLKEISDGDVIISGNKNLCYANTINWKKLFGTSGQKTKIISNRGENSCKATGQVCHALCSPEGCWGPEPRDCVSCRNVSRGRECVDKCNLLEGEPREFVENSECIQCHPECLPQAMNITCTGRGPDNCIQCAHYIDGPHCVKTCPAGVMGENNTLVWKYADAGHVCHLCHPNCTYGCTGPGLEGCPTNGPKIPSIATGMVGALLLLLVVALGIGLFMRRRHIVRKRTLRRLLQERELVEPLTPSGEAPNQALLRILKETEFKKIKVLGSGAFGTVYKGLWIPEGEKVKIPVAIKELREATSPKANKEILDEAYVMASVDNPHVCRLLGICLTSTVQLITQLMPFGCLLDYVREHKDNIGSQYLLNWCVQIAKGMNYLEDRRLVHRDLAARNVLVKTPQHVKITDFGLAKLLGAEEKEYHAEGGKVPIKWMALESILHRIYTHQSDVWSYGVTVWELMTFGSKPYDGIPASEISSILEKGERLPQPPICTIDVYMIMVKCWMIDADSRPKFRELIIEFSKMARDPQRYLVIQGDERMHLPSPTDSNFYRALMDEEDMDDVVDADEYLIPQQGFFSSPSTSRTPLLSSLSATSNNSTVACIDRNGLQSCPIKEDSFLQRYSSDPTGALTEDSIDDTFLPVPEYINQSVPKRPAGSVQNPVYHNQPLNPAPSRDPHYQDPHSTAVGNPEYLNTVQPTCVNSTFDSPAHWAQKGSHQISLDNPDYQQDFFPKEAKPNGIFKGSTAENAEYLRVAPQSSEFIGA
# Sequence of TEC (P42680 whole entry, looked up): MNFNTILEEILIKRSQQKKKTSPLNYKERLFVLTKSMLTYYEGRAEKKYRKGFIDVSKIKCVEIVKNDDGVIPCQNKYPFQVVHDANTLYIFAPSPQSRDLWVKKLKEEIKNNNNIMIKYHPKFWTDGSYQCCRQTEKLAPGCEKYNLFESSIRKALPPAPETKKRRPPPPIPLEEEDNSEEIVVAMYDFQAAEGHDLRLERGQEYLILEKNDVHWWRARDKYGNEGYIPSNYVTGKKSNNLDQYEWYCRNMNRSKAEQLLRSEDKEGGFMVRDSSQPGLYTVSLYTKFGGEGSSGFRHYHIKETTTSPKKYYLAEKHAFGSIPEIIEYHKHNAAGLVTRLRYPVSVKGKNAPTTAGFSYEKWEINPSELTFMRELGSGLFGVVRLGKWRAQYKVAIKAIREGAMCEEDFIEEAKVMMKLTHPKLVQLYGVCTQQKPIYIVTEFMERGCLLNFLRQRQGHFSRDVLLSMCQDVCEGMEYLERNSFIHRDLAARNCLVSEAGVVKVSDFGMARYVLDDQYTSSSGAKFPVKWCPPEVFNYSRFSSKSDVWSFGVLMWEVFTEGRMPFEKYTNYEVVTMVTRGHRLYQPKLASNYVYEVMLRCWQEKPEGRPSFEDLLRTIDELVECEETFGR
# Sequence of LCK (P06239 whole entry, looked up, species assumed): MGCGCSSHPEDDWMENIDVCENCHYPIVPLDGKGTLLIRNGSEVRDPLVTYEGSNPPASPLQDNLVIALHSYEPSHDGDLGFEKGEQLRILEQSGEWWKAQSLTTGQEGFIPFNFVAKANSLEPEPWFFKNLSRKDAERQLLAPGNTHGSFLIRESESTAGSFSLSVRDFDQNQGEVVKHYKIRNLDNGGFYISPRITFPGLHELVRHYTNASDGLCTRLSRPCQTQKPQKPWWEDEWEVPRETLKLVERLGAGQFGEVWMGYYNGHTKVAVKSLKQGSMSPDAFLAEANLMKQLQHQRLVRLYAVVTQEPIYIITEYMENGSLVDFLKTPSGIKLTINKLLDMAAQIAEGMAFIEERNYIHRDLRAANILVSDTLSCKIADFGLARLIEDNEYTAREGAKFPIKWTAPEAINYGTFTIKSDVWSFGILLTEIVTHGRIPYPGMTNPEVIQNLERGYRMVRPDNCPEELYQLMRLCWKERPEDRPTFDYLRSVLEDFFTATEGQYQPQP
# Sequence of ITK (Q08881 whole entry, looked up, species assumed): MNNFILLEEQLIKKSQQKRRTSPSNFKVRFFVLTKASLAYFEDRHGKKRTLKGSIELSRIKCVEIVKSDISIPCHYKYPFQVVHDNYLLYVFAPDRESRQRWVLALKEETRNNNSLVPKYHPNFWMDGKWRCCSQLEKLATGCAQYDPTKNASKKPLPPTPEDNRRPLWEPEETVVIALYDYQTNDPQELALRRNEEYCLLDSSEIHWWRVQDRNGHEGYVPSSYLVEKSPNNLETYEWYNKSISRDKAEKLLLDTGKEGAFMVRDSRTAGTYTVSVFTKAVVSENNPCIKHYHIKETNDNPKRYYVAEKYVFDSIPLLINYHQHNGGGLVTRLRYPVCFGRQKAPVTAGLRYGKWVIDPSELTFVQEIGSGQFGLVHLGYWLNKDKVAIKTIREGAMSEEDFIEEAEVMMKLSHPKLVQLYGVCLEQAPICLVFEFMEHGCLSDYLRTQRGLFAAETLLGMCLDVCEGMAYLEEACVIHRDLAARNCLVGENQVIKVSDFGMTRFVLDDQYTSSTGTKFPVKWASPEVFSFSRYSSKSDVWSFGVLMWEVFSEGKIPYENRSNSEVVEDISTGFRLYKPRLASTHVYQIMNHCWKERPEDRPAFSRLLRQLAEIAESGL
SMILES,Btk occupancy in vivo ([1]; 5 mg/kg single oral dose),pIC50 ([2]; read-out: BTK IC50),pIC50 ([2]; read-out: BTK Inhibition),pIC50 [3],pIC50 [4],pIC50 [5],pIC50 [6],pIC50 [7],Btk occupancy in vivo ([1]; 10 mg/kg single oral dose),pIC50 [8]
"C=CC(=O)N1CCC[C@H]1c1nc(-c2ccc(Oc3cccc(OC)c3F)cc2)c2cnccn12 [Example 30, (S)-1-(2-(1-(4-(2-fluoro-3-methoxyphenoxy)phenyl)imidazo[1,5-a]pyrazin-3-yl)pyrrolidin-1-yl)prop-2-en-1-one]",full occupancy,> 8.00,> 8.00,< 5.00,< 5.00,6.00 to 7.00,–,–,–,–
"C=CC(=O)N1CCC[C@@H](c2nc(-c3ccc(Oc4cccc(OC)c4F)cc3)c3cnccn23)C1 [Example 1, (R)-1-(3-(1-(4-(2-fluoro-3-methoxyphenoxy)phenyl)imidazo[1,5-a]pyrazin-3-yl)piperidin-1-yl)prop-2-en-1-one]",full occupancy,> 8.00,> 8.00,< 5.00,< 5.00,6.00 to 7.00,6.00 to 7.00,5.00 to 6.00,–,–
"C=CC(=O)N1CCCC[C@H]1c1nc(-c2ccc(Oc3cccc(OC)c3F)cc2)c2c(C)nccn12 [Example 27, (S)-1-(2-(1-(4-(2-fluoro-3-methoxyphenoxy)phenyl)-8-methylimidazo[1,5-a]pyrazin-3-yl)piperidin-1-yl)prop-2-en-1-one]",–,> 8.00,> 8.00,< 5.00,< 5.00,6.00 to 7.00,6.00 to 7.00,5.00 to 6.00,full occupancy,–
"C=CC(=O)N1CCC[C@H]1c1nc(-c2ccc(Oc3cccc(OC)c3)cc2)c2cnccn12 [Example 16, (S)-1-(2-(1-(4-(3-methoxyphenoxy)phenyl)imidazo[1,5-a]pyrazin-3-yl)pyrrolidin-1-yl)prop-2-en-1-one]",–,> 8.00,> 8.00,< 5.00,< 5.00,6.00 to 7.00,5.00 to 6.00,5.00 to 6.00,–,–
"C=CC(=O)N1CCC[C@H]1c1nc(-c2ccc(Oc3cccc(F)c3F)cc2)c2cnccn12 [Example 20, (S)-1-(2-(1-(4-(2,3-difluorophenoxy)phenyl)imidazo[1,5-a]pyrazin-3-yl)pyrrolidin-1-yl)prop-2-en-1-one]",–,> 8.00,> 8.00,< 5.00,< 5.00,6.00 to 7.00,5.00 to 6.00,5.00 to 6.00,–,–
"C=CC(=O)N1CCC[C@H]1c1nc(-c2ccc(OCc3c(F)cccc3F)cc2)c2cnccn12 [Example 136, (S)-1-(2-(1-(4-((2,6-difluorobenzyl)oxy)phenyl)imidazo[1,5-a]pyrazin-3-yl)pyrrolidin-1-yl)prop-2-en-1-one]",–,7.00 to 8.00,–,< 5.00,< 5.00,6.00 to 7.00,5.00 to 6.00,5.00 to 6.00,–,7.00 to 8.00
"CC#CC(=O)N1CCCC[C@H]1c1nc(-c2ccc(Oc3cccc(OC)c3F)cc2)c2c(C)nccn12 [Example 5, (S)-1-(2-(1-(4-(2-Fluoro-3-methoxyphenoxy)phenyl)-8-methylimidazo[1,5-a]pyrazin-3-yl)piperidin-1-yl)but-2-yn-1-one]",–,–,–,–,–,–,–,–,full occupancy,–
"C=CC(=O)N1CCCC[C@H]1c1nc(-c2ccc(Oc3cccc(F)c3)cc2)c2c(C)nccn12 [Example 55, (S)-1-(2-(1-(4-(3-fluorophenoxy)phenyl)-8-methylimidazo[1,5-a]pyrazin-3-yl)piperidin-1-yl)prop-2-en-1-one]",–,–,> 8.00,–,–,–,–,–,–,–
"C=CC(=O)N1CC[C@@H](c2nc(-c3ccc(Oc4cccc(OC)c4F)cc3)c3cnccn23)C1 [Example 68, (R)-1-(3-(1-(4-(2-fluoro-3-methoxyphenoxy)phenyl)imidazo[1,5-a]pyrazin-3-yl)pyrrolidin-1-yl)prop-2-en-1-one]",–,–,> 8.00,–,–,–,–,–,–,–
"C=CC(=O)N1CCC[C@H]1c1nc(-c2ccc(Oc3cccc(OC)c3C)cc2)c2cnccn12 [Example 29, (S)-1-(2-(1-(4-(3-methoxy-2-methylphenoxy)phenyl)imidazo[1,5-a]pyrazin-3-yl)pyrrolidin-1-yl)prop-2-en-1-one]",–,–,> 8.00,–,–,–,–,–,–,–
"C=CC(=O)N1CCC[C@H]1c1nc(-c2ccc(Oc3cccc(Cl)c3)cc2)c2cnccn12 [Example 28, (S)-1-(2-(1-(4-(3-chlorophenoxy)phenyl)imidazo[1,5-a]pyrazin-3-yl)pyrrolidin-1-yl)prop-2-en-1-one]",–,–,> 8.00,–,–,–,–,–,–,–
"C=CC(=O)N1CC[C@@H](c2nc(-c3ccc(Oc4cccc(OC)c4F)cc3)c3cncc(OC)n23)C1 [Example 85, (R)-1-(3-(1-(4-(2-fluoro-3-methoxyphenoxy)phenyl)-5-methoxyimidazo[1,5-a]pyrazin-3-yl)pyrrolidin-1-yl)prop-2-en-1-one]",–,–,> 8.00,–,–,–,–,–,–,–
